Biological target: CFTR (Homo sapiens, UniProt P13569)
Experiment: Membrane Potential Dye, Enteroid Assay A
Type: cell-based
Conditions: for EC50: read-out: Ent. A EC50
Experimental: Base medium (ADF+++) consisted of Advanced […], 2 mM Glutamax, 10 mM HEPES, 1 μg/mL penicillin/streptomycin.
Intestinal enteroid maintenance medium (IEMMN) consisted of ADF+++, 1× B27 supplement, 1× N2 supplement, 1.25 mM N-acetyl cysteine, 10 mM Nicotinamide, 50 ng/mL hEGF, 10 nM Gastrin, 1 μg/mL hR-spondin-1, 100 ng/mL hNoggin, TGF-b type 1 inhibitor A-83-01, 100 μg/mL Primocin, 10 μM P38 MAPK inhibitor SB202190.
Bath 1 Buffer consisted of 1 mM MgCl2, 160 mM NaCl, 4.5 mM KCl, 10 mM HEPES, 10 mM Glucose, 2 mM CaCl2).
Chloride Free Buffer consisted of 1 mM Magnesium Gluconate, 2 mM Calcium Gluconate, 4.5 mM Potassium Gluconate, 160 mM Sodium Gluconate, 10 mM HEPES, 10 mM Glucose.
Bath 1 Dye Solution consisted of Bath 1 Buffer, 0.04% Pluronic F127, 20 μM Methyl Oxonol, 30 μM CaCCinh-A01, 30 μM Chicago Sky Blue.
Chloride Free Dye Solution consisted of Chloride Free Buffer, 0.04% Pluronic F127, 20 μM Methyl Oxonol, 30 μM CaCCinh-A01, 30 μM Chicago Sky Blue.
Chloride Free Dye Stimulation Solution consisted of Chloride Free Dye Solution, 10 μM forskolin, 100 μM IBMX, and 300 nM Compound III.
Human intestinal epithelial enteroid cells were obtained from the Hubrecht Institute for Developmental Biology and Stem Cell Research, Utrecht, The Netherlands and expanded in T-Flasks as previously described (Dekkers J F, Wiegerinck C L, de Jonge H R, Bronsveld I, Janssens H M, de Winter-de Groot K M, Brandsma A M, de Jong N W M, Bijvelds M J C, Scholte B J, Nieuwenhuis E E S, van den Brink S, Clevers H, van der Ent C K, Middendorp S and M Beekman J M. A functional CFTR assay using primary cystic fibrosis intestinal organoids. Nat Med. 2013 July; 19(7):939-45.).
3. Enteroid Cell Harvesting and Seeding
Cells were recovered in cell recovery solution, collected by centrifugation at 650 rpm for 5 min at 4° C., resuspended in TrypLE and incubated for 5 min at 37° C. Cells were then collected by centrifugation at 650 rpm for 5 min at 4° C. and resuspended in IEMM containing 10 μM ROCK inhibitor (RI). The cell suspension was passed through a 40 μm cell strainer and resuspended at 1×10^6 cells/mL in IEMM containing 10 μM RI. Cells were seeded at 5000 cells/well into multi-well plates and incubated for overnight at 37° C., 95% humidity and 5% CO2 prior to assay.
4. Membrane Potential Dye, Enteroid Assay A
Enteroid cells were incubated with test compound in IEMM for 18-24 hours at 37° C., 95% humidity and 5% CO2. […] Briefly, cells were washed 5 times in Bath 1 Buffer. Bath 1 Dye Solution was added, and the cells were incubated for 25 min at room temperature. Following dye incubation, cells were washed 3 times in Chloride Free Dye Solution. Chloride transport was initiated by addition of Chloride Free Dye Stimulation Solution and the fluorescence signal was read for 15 min. […] Chloride transport was then expressed as a percentage of the chloride transport following treatment with 3 μM N-[(6-amino-2-pyridyl)sulfonyl]-6-(3-fluoro-5-isobutoxy-phenyl)-2-[(4S)-2,2,4-trimethylpyrrolidin-1-yl]pyridine-3-carboxamide, 3 μM (R)-1-(2,2-difluorobenzo[d][1,3]dioxol-5-yl)-N-(1-(2,3-dihydroxypropyl)-6-fluoro-2-(1-hydroxy-2-methylpropan-2-yl)-1H-indol-5-yl)cyclopropanecarboxamide and 300 nM acute N-[2,4-bis(1,1-dimethylethyl)-5-hydroxyphenyl]-1,4-dihydro-4-oxoquinoline-3-carboxamide triple combination control (% Activity).

CFTR, sequence (P13569 with tags, fused parts or gaps DEL508-508): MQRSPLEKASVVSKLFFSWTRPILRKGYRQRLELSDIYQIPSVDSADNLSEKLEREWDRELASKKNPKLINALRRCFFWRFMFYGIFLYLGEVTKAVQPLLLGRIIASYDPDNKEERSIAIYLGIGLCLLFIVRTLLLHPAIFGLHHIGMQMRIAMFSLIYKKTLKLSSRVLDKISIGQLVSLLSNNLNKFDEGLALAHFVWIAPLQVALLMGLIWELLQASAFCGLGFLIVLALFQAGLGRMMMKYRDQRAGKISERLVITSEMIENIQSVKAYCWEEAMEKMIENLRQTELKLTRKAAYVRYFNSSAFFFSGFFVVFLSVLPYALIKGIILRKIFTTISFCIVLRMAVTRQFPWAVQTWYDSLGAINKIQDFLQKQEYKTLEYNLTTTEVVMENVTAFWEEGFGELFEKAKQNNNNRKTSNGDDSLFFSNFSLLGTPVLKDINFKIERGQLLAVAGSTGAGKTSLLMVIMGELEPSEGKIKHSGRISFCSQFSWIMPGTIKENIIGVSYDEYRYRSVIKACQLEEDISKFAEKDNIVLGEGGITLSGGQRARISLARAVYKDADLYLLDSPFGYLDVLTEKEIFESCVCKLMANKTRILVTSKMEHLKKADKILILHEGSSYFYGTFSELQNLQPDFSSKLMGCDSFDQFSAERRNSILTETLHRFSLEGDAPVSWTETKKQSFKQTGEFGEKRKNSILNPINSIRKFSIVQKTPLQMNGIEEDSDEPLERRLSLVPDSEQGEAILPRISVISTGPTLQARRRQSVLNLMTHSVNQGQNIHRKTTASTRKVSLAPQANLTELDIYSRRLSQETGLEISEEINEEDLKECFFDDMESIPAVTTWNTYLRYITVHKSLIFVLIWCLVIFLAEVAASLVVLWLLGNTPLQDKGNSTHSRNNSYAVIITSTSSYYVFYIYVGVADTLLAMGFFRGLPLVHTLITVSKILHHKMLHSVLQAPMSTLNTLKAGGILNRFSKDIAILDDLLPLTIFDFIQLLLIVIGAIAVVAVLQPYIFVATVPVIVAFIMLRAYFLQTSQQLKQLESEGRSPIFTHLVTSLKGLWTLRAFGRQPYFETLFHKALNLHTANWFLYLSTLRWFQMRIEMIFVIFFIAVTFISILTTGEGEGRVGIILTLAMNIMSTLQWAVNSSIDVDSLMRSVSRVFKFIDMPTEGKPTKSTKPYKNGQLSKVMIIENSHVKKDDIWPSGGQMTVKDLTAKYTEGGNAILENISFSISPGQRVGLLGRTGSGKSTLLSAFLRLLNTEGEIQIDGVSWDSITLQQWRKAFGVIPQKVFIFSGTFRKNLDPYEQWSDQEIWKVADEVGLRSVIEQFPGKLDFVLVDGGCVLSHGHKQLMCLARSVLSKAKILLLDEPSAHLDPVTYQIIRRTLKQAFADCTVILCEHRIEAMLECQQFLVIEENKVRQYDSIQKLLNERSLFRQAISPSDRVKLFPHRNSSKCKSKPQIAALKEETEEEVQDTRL

CC(C)C[C@@H]1COc2cc(-c3ccccc3C(C)C)nc(n2)NS(=O)(=O)c2cccc(c2)C(=O)N1C1CC2(CCN(C(=O)OC(C)(C)C)CC2)C1 [Compound 12, tert-Butyl 2-[(11R)-11-isobutyl-6-(2-isopropylphenyl)-2,2,13-trioxo-9-oxa-2λ^6-thia-3,5,12,19-tetrazatricyclo[12.3.1.14,8]nonadeca-1(18),4,6,8(19),14,16-hexaen-12-yl]-7-azaspiro[3.5]nonane-7-carboxylate]
Ent. A Max Activity (%): ++ (++ is 30-60%) | EC50: < 1 µM

Cc1cccc(C)c1-c1cc2nc(n1)NS(=O)(=O)c1cccc(c1)C(=O)N(C1CC3(CCN(C(C)C)CC3)C1)[C@H](CC(C)C)CO2 [Compound 17, (11R)-6-(2,6-Dimethylphenyl)-11-isobutyl-12-(7-isopropyl-7-azaspiro[3.5]nonan-2-yl)-2,2-dioxo-9-oxa-2λ^6-thia-3,5,12,19-tetrazatricyclo[12.3.1.14,8]nonadeca-1(18),4(19),5,7,14,16-hexaen-13-one]
Ent. A Max Activity (%): +++ (+++ is >60%) | EC50: < 1 µM

Cc1cccc(C)c1-c1cc2nc(n1)NS(=O)(=O)c1cccc(c1)C(=O)N(C1CCC1)[C@H](CC(C)C)CO2 [Compound 27, (11R)-12-cyclobutyl-6-(2,6-dimethylphenyl)-11-isobutyl-2,2-dioxo-9-oxa-2λ^6-thia-3,5,12,19-tetrazatricyclo[12.3.1.14,8]nonadeca-1(18),4(19),5,7,14,16-hexaen-13-one]
Ent. A Max Activity (%): ++ (++ is 30-60%) | EC50: < 1 µM

Cc1cccc(C)c1-c1cc2nc(n1)NS(=O)(=O)c1cccc(c1)C(=O)N(C1CC3(COC3)C1)[C@H](CC(C)C)CO2 [Compound 29, (11R)-6-(2,6-Dimethylphenyl)-11-isobutyl-12-(2-oxaspiro[3.3]heptan-6-yl)-2,2-dioxo-9-oxa-2λ^6-thia-3,5,12,19-tetrazatricyclo[12.3.1.14,8]nonadeca-1(18),4(19),5,7,14,16-hexaen-13-one]
Ent. A Max Activity (%): +++ (+++ is >60%) | EC50: < 1 µM

Cc1cccc(C)c1-c1cc2nc(n1)NS(=O)(=O)c1cccc(c1)C(=O)N(C1CCCC1)[C@H](CC(C)C)CO2 [Compound 30, (11R)-12-Cyclopentyl-6-(2,6-dimethylphenyl)-11-isobutyl-2,2-dioxo-9-oxa-2λ^6-thia-3,5,12,19-tetrazatricyclo[12.3.1.14,8]nonadeca-1(18),4(19),5,7,14,16-hexaen-13-one]
Ent. A Max Activity (%): +++ (+++ is >60%) | EC50: < 1 µM

Cc1cccc(C)c1-c1cc2nc(n1)NS(=O)(=O)c1cccc(c1)C(=O)N(C1CC(C(=O)O)C1)[C@H](CC(C)C)CO2 (stereo partly drawn) [Compound 35, 3-[(11R)-6-(2,6-dimethylphenyl)-11-isobutyl-2,2,13-trioxo-9-oxa-2λ^6-thia-3,5,12,19-tetrazatricyclo[12.3.1.14,8]nonadeca-1(18),4(19),5,7,14,16-hexaen-12-yl]cyclobutanecarboxylic acid]
Ent. A Max Activity (%): +++ (+++ is >60%) | EC50: 3 to 30 µM

Cc1cccc(C)c1-c1cc2nc(n1)NS(=O)(=O)c1cccc(c1)C(=O)N(C1CC(C(=O)N3CCN(C)CC3)C1)[C@H](CC(C)C)CO2 (stereo partly drawn) [Compound 36, (11R)-6-(2,6-dimethylphenyl)-11-isobutyl-12-[3-(4-methylpiperazine-1-carbonyl)cyclobutyl]-2,2-dioxo-9-oxa-2λ^6-thia-3,5,12,19-tetrazatricyclo[12.3.1.14,8]nonadeca-1(18),4(19),5,7,14,16-hexaen-13-one]
Ent. A Max Activity (%): +++ (+++ is >60%) | EC50: < 1 µM

COC(=O)N1CCC2(CC1)CC(N1C(=O)c3cccc(c3)S(=O)(=O)Nc3nc(cc(-c4c(C)cccc4C)n3)OC[C@@H]1CC(C)C)C2 [Compound 113, Methyl 2-[(11S)-6-(2,6-dimethylphenyl)-11-isobutyl-2,2,13-trioxo-9-oxa-2λ^6-thia-3,5,12,19-tetrazatricyclo[12.3.1.14,8]nonadeca-1(18),4(19),5,7,14,16-hexaen-12-yl]-7-azaspiro[3.5]nonane-7-carboxylate]
Ent. A Max Activity (%): ++ (++ is 30-60%) | EC50: < 1 µM

Cc1cccc(C)c1-c1cc2nc(n1)NS(=O)(=O)c1cccc(c1)C(=O)N(C1CC3(CCN(C)CC3)C1)C[C@@H](C)O2 [Compound 179, (10R)-6-(2,6-Dimethylphenyl)-10-methyl-12-(7-methyl-7-azaspiro[3.5]nonan-2-yl)-2,2-dioxo-9-oxa-2λ^6-thia-3,5,12,19-tetrazatricyclo[12.3.1.14,8]nonadeca-1(18),4(19),5,7,14,16-hexaen-13-one]
Ent. A Max Activity (%): +++ (+++ is >60%) | EC50: 1 to 3 µM

COC(=O)N1CCC2(CC1)CC(N1C(=O)c3cccc(c3)S(=O)(=O)Nc3cc(cc(-c4c(C)cccc4C)n3)OC[C@H]1CC(C)C)C2 [Compound 196, Methyl 2-[(11R)-6-(2,6-dimethylphenyl)-11-isobutyl-2,2,13-trioxo-9-oxa-2λ^6-thia-3,5,12-triazatricyclo[12.3.1.14,8]nonadeca-1(18),4(19),5,7,14,16-hexaen-12-yl]-7-azaspiro[3.5]nonane-7-carboxylate]
Ent. A Max Activity (%): +++ (+++ is >60%) | EC50: < 1 µM

Cc1cccc(C)c1-c1cc2nc(n1)NS(=O)(=O)c1cccc(c1)C(=O)N(C1CC3(CC3)C1)C(CC(C)(C)C(F)(F)F)CO2 (stereo not drawn) [Compound 216]
Ent. A Max Activity (%): +++ (+++ is >60%) | EC50: < 1 µM

COC(=O)N1CCC2(CC1)CC(N1C[C@@H](C)Oc3cc(-c4c(C)cccc4C)nc(n3)NS(=O)(=O)c3cccc(c3)C1=O)C2 [Compound 312]
Ent. A Max Activity (%): +++ (+++ is >60%) | EC50: < 1 µM

Cc1cccc(C)c1-c1cc2nc(n1)NS(=O)(=O)c1cccc(c1)C(=O)N([C@H]1CC3(C[C@H](N(C)C)C3)C1)[C@H](CC(C)C)CO2 (stereo partly drawn) [Compound 314]
Ent. A Max Activity (%): +++ (+++ is >60%) | EC50: < 1 µM

COC(=O)N1CCCC2(CC(N3C(=O)c4cccc(c4)S(=O)(=O)Nc4nc(cc(-c5c(C)cccc5C)n4)OC[C@H]3CC(C)C)C2)C1 (stereo partly drawn) [Compound 324]
Ent. A Max Activity (%): +++ (+++ is >60%) | EC50: < 1 µM

COC(=O)N1CCC2(CC(N3C(=O)c4cccc(c4)S(=O)(=O)Nc4nc(cc(-c5c(C)cccc5C)n4)OC[C@H]3CC(C)C)C2)C1 (stereo partly drawn) [Compound 325]
Ent. A Max Activity (%): +++ (+++ is >60%) | EC50: < 1 µM

COC(=O)N1CCCC2(CC(N3C(=O)c4cccc(c4)S(=O)(=O)Nc4nc(cc(-c5c(C)cccc5C)n4)OC[C@H]3CC(C)C)C2)C1 (stereo partly drawn) [Compound 327]
Ent. A Max Activity (%): +++ (+++ is >60%) | EC50: < 1 µM

COC(=O)N1CCC2(CC(N3C(=O)c4cccc(c4)S(=O)(=O)Nc4nc(cc(-c5c(C)cccc5C)n4)OC[C@H]3CC(C)C)C2)C1 (stereo partly drawn) [Compound 328]
Ent. A Max Activity (%): +++ (+++ is >60%) | EC50: < 1 µM

Cc1cccc(C)c1-c1cc2nc(n1)NS(=O)(=O)c1cccc(c1)C(=O)N([C@H]1C[C@]3(CCN(C)C3)C1)[C@H](CC(C)C)CO2 [Compound 330]
Ent. A Max Activity (%): +++ (+++ is >60%) | EC50: < 1 µM

Cc1cccc(C)c1-c1cc2nc(n1)NS(=O)(=O)c1cccc(c1)C(=O)N([C@H]1C[C@]3(CCCCN3C)C1)[C@H](CC(C)C)CO2 [Compound 331]
Ent. A Max Activity (%): +++ (+++ is >60%) | EC50: < 1 µM

Cc1cccc(C)c1-c1cc2nc(n1)NS(=O)(=O)c1cccc(c1)C(=O)N([C@H]1C[C@]3(CCCN(C)C3)C1)[C@H](CC(C)C)CO2 [Compound 332]
Ent. A Max Activity (%): +++ (+++ is >60%) | EC50: < 1 µM

CC(=O)N1CC2(CC(N3C(=O)c4cccc(c4)S(=O)(=O)Nc4nc(cc(-c5c(C)cccc5C)n4)OC[C@H]3CC(C)C)C2)C1 [Compound 335]
Ent. A Max Activity (%): ++ (++ is 30-60%) | EC50: < 1 µM

— patent US20230382925A1, “MODULATORS OF CYSTIC FIBROSIS TRANSMEMBRANE CONDUCTANCE REGULATOR” (VERTEX PHARMACEUTICALS INCORPORATED, priority 2020, published 2023)
